Experimental data as given in PMC10663516 (Scientific Reports, 2023).

Assays:
[1] = set-up: method as in PMID 29241979; details: phase 2 MCL study; cited from earlier work
Tolerability in mice = type: in vivo; details: same strain as efficacy studies, 30 mg/kg QD PO, unpublished observations
Procedure: For acalabrutinib, the current clinically recommended oral dose in MCL is 100 mg twice daily (BID)[18],[19], which results in an exposure of 1111 h·ng/mL[18],[19]. There are no published data on the pharmacokinetics of acalabrutinib in mice. The compound was administered at 15 mg/kg BID in mouse xenograft tumor models, giving a total daily dose of 30 mg/kg.

[2] = set-up: method as in PMID 20615965; details: mice, oral, 14.2 mg/kg; cited from earlier work
GCB-DLBCL cell lines = assay: Cell viability, ATPlite, GCB-DLBCL panel; type: cell-based; details: Homo sapiens; all GCB-DLBCL cell lines, 72 h; read-out: IC50s in GCB-DLBCL cell lines
Procedure: (§1) The potency of TL-895 effects on cell viability was further examined in vitro in a panel of diffuse large B-cell lymphoma (DLBCL) and MCL cell lines, comprising ten germinal B-cell like subtype (GCB)-DLBCL cell lines, six activated B-cell like (ABC)-DLBCL cell lines, and six MCL cell lines (Horizon Discovery Inc, Cambridge MA, USA). Cells were seeded into 384-well plates (500 cells/well) and incubated (37 °C for 24 h) before treatment with varying concentrations of TL-895 for 72 h. ATP levels were analyzed using the ATPlite Luminescence Assay System (Perkin Elmer, UK). Growth inhibition and maximum response were calculated using the Chalice Analyzer (Horizon Discovery Inc).

BTK [3] = biological target: T1, BTK (Homo sapiens, UniProt Q06187); assay: Millipore Kinase Profiler screening panel, BTK; type: biochemical; set-up: purchased EMD Millipore; details: n = 2
T1 sequence (Q06187 whole entry): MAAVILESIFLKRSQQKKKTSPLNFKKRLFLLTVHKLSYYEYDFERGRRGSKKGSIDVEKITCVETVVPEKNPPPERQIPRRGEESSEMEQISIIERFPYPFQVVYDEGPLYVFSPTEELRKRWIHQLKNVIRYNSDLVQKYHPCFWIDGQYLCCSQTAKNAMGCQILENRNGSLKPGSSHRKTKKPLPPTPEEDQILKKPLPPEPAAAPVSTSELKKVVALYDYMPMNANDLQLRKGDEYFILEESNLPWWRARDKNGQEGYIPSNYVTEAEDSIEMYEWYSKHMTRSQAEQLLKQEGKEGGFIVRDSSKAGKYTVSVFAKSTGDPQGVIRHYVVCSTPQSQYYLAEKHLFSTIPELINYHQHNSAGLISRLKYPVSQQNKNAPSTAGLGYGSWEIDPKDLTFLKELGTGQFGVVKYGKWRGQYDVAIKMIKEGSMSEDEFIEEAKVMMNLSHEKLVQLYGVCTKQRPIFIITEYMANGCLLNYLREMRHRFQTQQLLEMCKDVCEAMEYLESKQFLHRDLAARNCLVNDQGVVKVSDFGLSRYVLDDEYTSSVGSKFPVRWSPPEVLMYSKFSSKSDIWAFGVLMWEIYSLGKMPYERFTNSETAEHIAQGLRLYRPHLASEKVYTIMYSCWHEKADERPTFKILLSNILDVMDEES
Procedure: (§2) The Kinase Profiler™ screening panel (EMD Millipore, Burlington, MA, USA) was used to test the inhibitory activity of TL-895 against 270 protein kinases. Kinases were incubated with TL-895 (1 µM) for 20 min to 4 h at room temperature, according to standard kinome screen procedures. […]

BTK [4] = biological target: T1, BTK; assay: Off-Chip mobility shift kinase assay (potency); type: biochemical; set-up: Purified full-length recombinant BTK (Carna Biosciences #08–080); purchased Carna Biosciences 08–080; details: 75 µM ATP, 90 min, n = 9
Procedure: Purified full-length recombinant BTK (Carna Biosciences #08–080) was diluted in buffer (see Supplementary Material) to a final concentration of 0.05 ng/µL with 75 µM ATP and 1 µM of the peptide FITC-AHA-[…]-NH2 (Tufts Core Facility, Boston, MA, USA) into microtiter plates. TL-895 (0.038–10,000 nM) was added and the samples were incubated at room temperature for 90 min (min) before the addition of stop buffer containing 10 mM ethylenediamine tetra-acetic acid (EDTA; see Supplementary Material). Samples were read on a Caliper LC3000 (Caliper Life Sciences, Waltham, MA, USA) using an Off-Chip mobility shift assay format to measure percentage conversion of substrate to product, from which half maximal inhibitory concentration (IC50)–response curves were generated.
potent second-generation BTK inhibitor, for the treatment of B-cell
Samantha M. Goodstal, Jing Lin, Timothy Crandall, Lindsey Crowley, Andrew T. Bender,
Albertina Pereira, Maria Soloviev, John S. Wesolowski, Riham Iadevaia,
Sven-Eric Schelhorn, Edith Ross, Federica Morandi, Jianguo Ma, Anderson Clark
Kinase assay buffer components
4 mM dithiothreitol (Sigma, D0632)
100 mM 4-(2-hydroxyethyl)-1-piperazineethanesulfonic acid (HEPES) pH 7.5
0.227% Coating Reagent #3 (Caliper Life Sciences)
TL-89 5 lo g c onc ent rati on (M )
Supplementary Figure S1. Inhibition of recombinant human full-length BTK activity by TL-
895 and resulting IC50. […]

BTK [5] = biological target: T1, BTK; assay: BTK phosphorylation in Ramos cells after anti-IgM stimulation (ProteinSimple Wes); type: cell-based; set-up: endogenous in cells; host or cells: Ramos Burkitt's lymphoma cells (ATCC CRL-1596)
B-cell malignancies = details: cited from earlier work
HepG2 cells = assay: Cytotoxicity by ATP content (CellTiter-Glo); type: cell-based, human; details: HepG2 EC50 at 24 and 72 h
Procedure: (§3) HepG2 cells (human hepatocellular carcinoma [epithelial]) and primary human hepatocytes were cultured in DMEM/F-12 medium supplemented with antibiotics, sodium pyruvate, insulin and 10% fetal calf serum. During the testing steps, the medium was replaced by serum-free media containing bovine serum albumin (BSA) and dexamethasone. All the cultures are incubated at 37 °C in a humidified chamber containing 5% CO2. […] HepG2 and primary hepatocytes were cultured in 96-well tissue culture plates either for luminescence (2E4/well in 100 µL) or pre-coated with collagen I (3.5E4/well in 100 µL, respectively).
(§4) For the cytotoxicity data, the % values relative (%RV) to the vehicle controls were calculated for each dose level. […] The overall EC50s were the averages of the values obtained from each experiment (PRISM® GraphPad™ Software, Boston, MA).

[6] = Cytotoxicity by ATP content (CellTiter-Glo); type: cell-based, human; details: human, HepG2 cells
Procedure: as §3, §4

[7] = mouse, in vivo, po, 25 mg/kg
[8] = test system: primary human hepatocytes; assay: Cytotoxicity by ATP content (CellTiter-Glo); type: cell-based; details: hepatocyte EC50 at 24 h
Procedure: as §3, §4

[9] = Cytotoxicity by ATP content (CellTiter-Glo); type: cell-based, human; details: primary human hepatocytes, 24 h
Procedure: as §3, §4

BMX = biological target: T2, BMX (Homo sapiens, UniProt P51813); assay: Millipore Kinase Profiler screening panel, BMX; type: biochemical
T2 construct: purchased EMD Millipore
T2 sequence (P51813 whole entry): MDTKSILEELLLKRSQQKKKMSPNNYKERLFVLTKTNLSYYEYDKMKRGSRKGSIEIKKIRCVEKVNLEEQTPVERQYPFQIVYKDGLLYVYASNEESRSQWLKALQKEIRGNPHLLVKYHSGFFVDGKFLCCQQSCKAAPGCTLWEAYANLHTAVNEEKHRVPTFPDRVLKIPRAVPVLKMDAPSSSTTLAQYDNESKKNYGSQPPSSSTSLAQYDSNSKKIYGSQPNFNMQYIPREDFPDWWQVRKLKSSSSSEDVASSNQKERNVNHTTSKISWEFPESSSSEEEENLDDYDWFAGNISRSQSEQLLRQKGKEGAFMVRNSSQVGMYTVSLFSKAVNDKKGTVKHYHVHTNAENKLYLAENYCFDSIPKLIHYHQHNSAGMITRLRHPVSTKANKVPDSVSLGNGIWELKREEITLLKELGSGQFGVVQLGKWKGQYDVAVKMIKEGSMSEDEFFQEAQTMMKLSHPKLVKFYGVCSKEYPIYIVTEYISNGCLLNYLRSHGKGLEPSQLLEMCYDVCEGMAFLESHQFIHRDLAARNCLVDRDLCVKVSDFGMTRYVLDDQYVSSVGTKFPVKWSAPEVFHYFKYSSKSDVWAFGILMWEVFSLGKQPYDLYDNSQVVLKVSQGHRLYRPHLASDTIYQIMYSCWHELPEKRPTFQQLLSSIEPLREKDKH
Procedure: as §2

SU-DHL-2-epst = assay: Cell viability, ATPlite; type: cell-based, human
Procedure: as §1

TMD8 = assay: Cell viability, ATPlite; type: cell-based, human
Procedure: as §1

OCI-Ly3 = assay: Cell viability, ATPlite; type: cell-based, human
Procedure: as §1

HBL-1 = assay: Cell viability, ATPlite; type: cell-based, human
Procedure: as §1

[10] = Homo sapiens, TMD8 (ABC-DLBCL), 72 h
[11] = Homo sapiens, HBL1, HBL-1 (ABC-DLBCL), 72 h

**Q.** Which results are given for `CC#CC(=O)N1CCC[C@H]1c1nc(-c2ccc(C(=O)Nc3ccccn3)cc2)c2c(N)nccn12` [Acalabrutinib]?
**A.** Adverse event: diarrhea [1]: 31%; Adverse event: fatigue [1]: 27%; Adverse event: headache [1]: 38%; Grade ≥ 3 adverse event: anemia [1]: 9%; Grade ≥ 3 adverse event: neutropenia [1]: 10%; Grade ≥ 3 adverse event: pneumonia [1]: 5%; Tolerability (Tolerability in mice): no significant tolerability issues

**Q.** For `C=CC(=O)N1CCC[C@@H](n2nc(-c3ccc(Oc4ccccc4)cc3)c3c(N)ncnc32)C1` [Ibrutinib], which Exposure [2] is on record?
**A.** 569 ng·h/mL

**Q.** What does the source list for `C=CC(=O)N1CCC(F)(CNc2ncnc(N)c2-c2ccc(Oc3ccccc3)cc2)CC1` [TL-895]?
**A.** IC50 (GCB-DLBCL cell lines): > 5000 nM; IC50 (BTK [3]): 18.5 nM; IC50 (BTK [4]): 1.5 nM; IC50 (BTK [5]; 30 min pre-treatment, anti-IgM stimulation, read-out: IC50, BTK auto-phosphorylation at Y223): 1 to 10 nM; Phosphorylation of Y551 on the activation loop (BTK [5]; up to highest tested concentration 1 µM): not inhibited; Dose-limiting toxicities (B-cell malignancies; doses up to 900 mg/day): no dose-limiting toxicities were reported; Maximum tolerated dose (B-cell malignancies; doses up to 900 mg/day): not reached; Patients with best response of PR or higher (B-cell malignancies; monotherapy): Half of patients; Patients with treatment-related grade 3–4 adverse events (B-cell malignancies; three patients): 17%; Cytotoxicity EC50 in HepG2 cells relative to IC50s in sensitive MCL and DLBCL cell lines (HepG2 cells): 5–5000 fold; EC50 at 24 h ([6]; HepG2, 24 h): > 50000 nM; EC50 at 72 h ([6]; HepG2, 72 h): > 50000 nM; Exposure relative to that needed for 90–95% target occupancy [7]: 8.5 fold; Cytotoxicity EC50 in primary human hepatocytes relative to IC50 in primary CLL blasts [8]: 32 fold; EC50 at 24 h [9]: 6400 nM; IC50 (BMX): 5 nM; Emax (SU-DHL-2-epst; Homo sapiens, SU-DHL-2-epst (ABC-DLBCL), 72 h, read-out: Max response (GI %)): 2%; Sensitivity to TL-895 (SU-DHL-2-epst; SU-DHL-2-epst, MyD88 mutation, CD79 wild-type): unresponsive; GI50 (TMD8; [10]): 10 nM; IC50 (TMD8; [10]): 10 nM; Emax (TMD8; Homo sapiens, TMD8 (ABC-DLBCL), 72 h, read-out: Max response (GI %)): 181%; Sensitivity to TL-895 (TMD8; TMD8, mutations in both CD79b and MyD88): sensitive; Emax (OCI-Ly3; Homo sapiens, OCI-Ly3 (ABC-DLBCL), 72 h, read-out: Max response (GI %)): 39%; Sensitivity to TL-895 (OCI-Ly3; OCI-Ly3, MyD88 mutation, CD79 wild-type): unresponsive; Sensitivity to TL-895 (HBL-1; HBL-1, mutations in both CD79b and MyD88): sensitive; GI50 (HBL-1; [11]): 560 nM; IC50 (HBL-1; [11]): 10300 nM; Emax (HBL-1; Homo sapiens, HBL1, HBL-1 (ABC-DLBCL), 72 h, read-out: Max response (GI %)): 89%
